According to paper PMC7464559, “Synthesis, Optimization, Antifungal Activity, Selectivity, and CYP51 Binding of New 2-Aryl-3-azolyl-1-indolyl-propan-2-ols” (Pharmaceuticals, 2020):
In brackets after ≈: the same amount, converted by molar mass. Entries after “also recorded” stand apart in the source; their conditions may differ.

How the values were obtained:
MRC5 toxicity assay = format: cell-based, human; conditions: human, MRC-5 human fetal lung fibroblast cells, MRC-5 cells, 96-h incubation, mean of triplicate; read-out: Cytotoxicity IC50 on MRC-5 cells
Protocol: The cytotoxicity of compounds was studied with human fibroblast (MRC5). Cells were grown in RPMI 1640 medium (Sigma-Aldrich, Saint-Quentin Fallavier, France) supplemented with 10% fetal bovin serum (Sigma–Aldrich). Drugs were tested at three concentrations (100, 10, and 1 µM) in triplicate. After a 96-h incubation time, cytotoxicity was measured on the Fluorolite 1000 (Dynatech, Guyancourt, France) after a 4-h incubation time with Uptiblue® (Interchim, Montluçon, France). Inhibitory concentration 50 is a mean of triplicate values. A toxicity index was determined as follow: IC50 against MRC5/Geometric mean of the MICs against Candida spp..

[1] = molecular target: T1, 11β-hydroxylase (CYP11B1) (Homo sapiens, UniProt P15538); assay: In vitro inhibition of CYP11B1 (Schizosaccharomyces pombe SZ1); format: cell-based; conditions: inhibitor 100 nM to 5 µM, three to four independent experiments
T1 construct: expressed in transfected cells; host or cells: Schizosaccharomyces pombe strain SZ1
T1 sequence (P15538 25-503): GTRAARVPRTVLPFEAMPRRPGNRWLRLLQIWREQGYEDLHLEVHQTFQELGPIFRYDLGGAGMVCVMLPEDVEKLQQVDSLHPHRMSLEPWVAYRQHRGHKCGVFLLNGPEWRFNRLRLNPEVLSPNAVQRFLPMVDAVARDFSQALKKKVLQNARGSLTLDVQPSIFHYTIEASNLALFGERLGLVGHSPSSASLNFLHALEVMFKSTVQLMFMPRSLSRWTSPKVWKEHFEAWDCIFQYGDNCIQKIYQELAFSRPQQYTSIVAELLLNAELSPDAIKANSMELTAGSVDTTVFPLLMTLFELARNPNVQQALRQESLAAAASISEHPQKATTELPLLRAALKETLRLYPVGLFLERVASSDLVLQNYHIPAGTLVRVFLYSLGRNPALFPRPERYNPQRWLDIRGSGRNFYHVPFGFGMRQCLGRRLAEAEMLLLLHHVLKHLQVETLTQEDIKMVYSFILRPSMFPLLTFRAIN
Protocol: For the CYP11B1 assay, 11-deoxycortisol (RSS) was used as substrate, whereas 11-deoxycorticosterone (DOC) was used for the CYP11B2 assay. These non-radioactive steroids were purchased from Sima (Deisenhofen, Germany). Radioactive steroids were obtained from Amersham Pharmacia Biotech (Freiburg, Germany). Two Schizosaccharomyces pombe strains were used, SZ1 expressing CYP11B1 and MB164 expressing CYP11B2. The assays were performed as described previously by Bureik et al.. Exponentially growing fission yeast cells were cultivated by shaking and with good aeration at 30 °C in 500 µL Edinburgh Minimal Medium Glutamate (EMMG) containing supplements as required. Inhibitors were dissolved in ethanol at different concentrations, and equal volumes of ethanolic solutions were used in all cases (including controls). Final concentrations of inhibitors ranged from 100 nM to 5 µM. Cells were preincubated with the respective inhibitor solutions for 15 min prior to the addition of steroid substrates (100 nM DOC or 100 nM RSS, respectively). For detection of steroids, 1% of the total substrate amount was radioactively labeled as [^3H]RSS, [^3H]DOC, or [^14C]DOC. After 4 h (MB164) or 24 h (SZ1) cultures were extracted with chloroform and dried under vacuum. The residues were dissolved in 10 µL chloroform and spotted onto glass-backed silica-coated HPTLC plates (Kieselgel 60 F254, Merck; Darmstadt, Germany). In addition, small amounts of non-radioactive steroids were spotted as references. The HPTLC was developed twice in chloroform/methanol/water (300:20:1, v/v/v) and steroids identified after exposure to Fuji imaging plates and quantitated on a phosphoimager (BAS-2500, Fuji; Stamford, CT, USA).

aromatase (CYP19) = molecular target: T2, aromatase (CYP19) (Homo sapiens, UniProt P11511); assay: In vitro inhibition of aromatase; format: biochemical; conditions: at 36 µM
T2 construct: Microsomal protein (0.1 mg) was added to start the reaction; from tissue; host or cells: microsomes; ('human placental microsomes')
T2 sequence (P11511 1-503): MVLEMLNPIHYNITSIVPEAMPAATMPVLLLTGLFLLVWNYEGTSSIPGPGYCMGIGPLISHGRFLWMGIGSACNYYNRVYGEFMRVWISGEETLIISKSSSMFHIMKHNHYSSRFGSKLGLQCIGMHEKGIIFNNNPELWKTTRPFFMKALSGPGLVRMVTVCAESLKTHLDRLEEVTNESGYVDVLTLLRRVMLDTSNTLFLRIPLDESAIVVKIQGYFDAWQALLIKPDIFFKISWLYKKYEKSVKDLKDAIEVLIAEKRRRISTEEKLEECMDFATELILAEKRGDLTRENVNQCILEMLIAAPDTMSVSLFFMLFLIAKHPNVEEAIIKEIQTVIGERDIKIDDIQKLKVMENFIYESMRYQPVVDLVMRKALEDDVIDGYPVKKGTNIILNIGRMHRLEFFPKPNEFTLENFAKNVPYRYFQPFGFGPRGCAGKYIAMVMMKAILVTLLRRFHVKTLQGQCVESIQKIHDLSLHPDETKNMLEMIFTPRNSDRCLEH
Protocol: The assay was performed according to previously described methods [49, 50, 51] by monitoring the enzyme activity by measuring the ^3H2O formed from [1β-^3H]androstenedione during aromatization. […] Microsomal protein (0.1 mg) was added to start the reaction. After incubation of 15 min at 30 °C, the reaction was stopped by adding 200 µL of a cold HgCl2 solution (1 mM). After the addition of 200 µL of an aqueous dextran-coated charcoal (DCC) suspension (2%), the vials were shaken then centrifuged to separate the charcoal-absorbed steroids. Aliquots of the supernatant were assayed for ^3H2O by counting in a scintillation mixture using a LKB-Wallac β-counter.

[2] = test system: ATCC2091 Candida albicans strain; assay: Anti-Candida in vitro assay, ATCC2091; format: cell-based; conditions: Candida albicans ATCC2091, mean of triplicate; read-out: MIC (IC80) ATCC2091
Protocol: (§1) Test fungal strains were obtained from the American Type Culture Collection (ATCC) or were clinical isolates from the Laboratory of Parasitology and Medical Mycology, Centre Hospitalier Universitaire (CHU) of Nantes. The strains were maintained on Sabouraud agar slants and were subcultured 24 h before used. The activity of the target compounds 8a–g and 11a–m was determined by the method previously described. Briefly, molecules were diluted in RPMI 1640 medium supplemented with 0.165 M morpholinopropanesulphonic acid (Sigma-Aldrich, Saint-Quentin Fallavier, France), 2% glucose, and antibiotics. Candida suspensions were prepared in RPMI 1640 medium (Sigma-Aldrich, Saint-Quentin Fallavier, France) adjusted to give a final concentration of 10^3 cells/mL, and a 96-well microplate (Nunc, D. Dutscher, Brumath, France) was seeded with 100 µL. Each concentration of molecules (100 µL) to be tested was added (in triplicate) and plates were incubated at 37 °C for 24 h. The cellular viability was evaluated on the Fluorolite 1000 (Dynatech, France) with an excitation at 550 nm and an emission at 590 nm after a 4 h incubation with 10 µL of Alamar Blue®. […] MIC was expressed as the mean of the triplicate values. KTC and FLC were used as standards.

C. albicans CA98001 = assay: Anti-Candida in vitro assay (Alamar Blue), C. albicans CA98001; format: cell-based; conditions: for MIC: Candida albicans, CA98001, 24 h, MIC = IC80, 24 h at 37 °C, mean of triplicate; for Times more active than FLC against C. albicans CA98001: ratio of MIC values versus FLC
Protocol: as §1

CYP11B1 inhibition effect [1]	inhibition at 36 µM (aromatase (CYP19)) [%]	MIC [2] [µg/mL]	MIC (C. albicans CA98001) [µg/mL]	Compound	IC50 at 96 h (MRC5 toxicity assay) [µM]	Times more active than FLC against C. albicans CA98001 (C. albicans CA98001)
no inhibition	51	1.01 (≈ 2.6 µM)	0.023 (≈ 0.0594 µM)	O[C@@](Cn1cncn1)(Cn1ccc2ccccc21)c1ccc(Cl)cc1Cl [(+)-(R)-8g]	32	
no inhibition	72	< 0.039	0.000256 (≈ 0.000661 µM)	O[C@](Cn1cncn1)(Cn1ccc2ccccc21)c1ccc(Cl)cc1Cl [(−)-(S)-8g]	30	≈ 80

Compound	CYP11B1 inhibition effect [1]	inhibition at 36 µM (aromatase (CYP19)) [%]	MIC [2] [µg/mL]	MIC (C. albicans CA98001) [µg/mL]	IC50 at 96 h (MRC5 toxicity assay) [µM]	Times more active than FLC against C. albicans CA98001 (C. albicans CA98001)
OC(Cn1cncn1)(Cn1ccc2ccccc21)c1ccc(Cl)cc1Cl (stereo not shown) [Compound 8g, 2-(2,4-Dichlorophenyl)-3-(1H-indol-1-yl)-1-(1H-1,2,4-triazol-1-yl)-propan-2-ol]	no inhibitory activity; also recorded: no inhibition	27	< 0.004	0.000259 (≈ 0.000669 µM)		≈ 80
